Results as given in article PMC7686313, “Phase 1 study of mTORC1/2 inhibitor sapanisertib (TAK-228) in advanced solid tumours, with an expansion phase in renal, endometrial or bladder cancer” (British Journal of Cancer, 2020).

Assay: Safety (adverse events, NCI CTCAE v4.0), expansion phase
Text: Based on data collected during dose-escalation, the expansion phase evaluated the safety and efficacy of QD and QW sapanisertib in patients with RCC, endometrial or bladder cancer. Patients could continue receiving sapanisertib for ≤1 year (or beyond, if the investigator and sponsor agreed) in the absence of disease progression or unacceptable toxicity.
Patients who received ≥1 dose of sapanisertib were included in the safety population. The response-evaluable population included patients who received ≥1 dose of sapanisertib, had measurable disease at baseline, and had ≥1 postbaseline assessment. […] Adverse events (AEs) were assessed using the National Cancer Institute Common Terminology Criteria for Adverse Events, v4.0. Patients were provided with a home blood-glucose meter to monitor their fasting predose blood-glucose measurements to assess hyperglycaemia as an on-target AE and PD marker.

CC(C)n1nc(-c2ccc3oc(N)nc3c2)c2c(N)ncnc21 [Sapanisertib]
2 (12) n (%): Anaemia, all-grade AE of any cause (expansion QW 30 mg) | Anaemia, treatment-related AE (expansion QW 30 mg) | Arthralgia, all-grade AE of any cause (expansion QW 30 mg) | Dehydration, treatment-related AE (expansion QW 30 mg) | Fatigue, grade ≥3 AE of any cause (expansion QW 30 mg) | Fatigue, treatment-related grade ≥3 AE (expansion QW 30 mg) | Headache, all-grade AE of any cause (expansion QW 30 mg) | Hyperglycaemia, grade ≥3 AE of any cause (expansion QW 30 mg) | Hyperglycaemia, treatment-related grade ≥3 AE (expansion QW 30 mg) | Hypophosphatemia, grade ≥3 AE of any cause (expansion QW 30 mg) | Hypophosphatemia, treatment-related AE (expansion QW 30 mg) | Nausea, grade ≥3 AE of any cause (expansion QW 30 mg) | On-study deaths (expansion QW 30 mg) | Pain in extremity, grade ≥3 AE of any cause (expansion QW 30 mg) | Pruritus generalised, treatment-related AE (expansion QW 30 mg) | Rash maculo-papular, treatment-related AE (expansion QW 30 mg) | Weight decreased, all-grade AE of any cause (expansion QW 30 mg)
8 (21) n (%): Pyrexia, all-grade AE of any cause (expansion QD 5 mg)
14 (36) n (%): Rash maculo-papular, treatment-related AE (expansion QD 5 mg)
8 (47) n (%): Any AE resulting in dose modification/interruption (expansion QW 30 mg) | Constipation, all-grade AE of any cause (expansion QW 30 mg) | Diarrhoea, all-grade AE of any cause (expansion QW 30 mg) | Stomatitis (includes oropharyngeal pain and mucosal inflammation), treatment-related AE (expansion QW 30 mg)
25 (64) n (%): Fatigue, all-grade AE of any cause (expansion QD 5 mg)
2 (5) n (%): Acute kidney injury, grade ≥3 AE of any cause (expansion QD 5 mg) | Acute kidney injury, treatment-related AE (expansion QD 5 mg) | Anaemia, treatment-related AE (expansion QD 5 mg) | Arthralgia, all-grade AE of any cause (expansion QD 5 mg) | Dehydration, treatment-related AE (expansion QD 5 mg) | Diarrhoea, grade ≥3 AE of any cause (expansion QD 5 mg) | Diarrhoea, treatment-related grade ≥3 AE (expansion QD 5 mg) | Dyspnoea, grade ≥3 AE of any cause (expansion QD 5 mg) | Haematuria, grade ≥3 AE of any cause (expansion QD 5 mg) | Hyperkalaemia, grade ≥3 AE of any cause (expansion QD 5 mg) | Pneumonia, grade ≥3 AE of any cause (expansion QD 5 mg) | Thrombocytopenia, grade ≥3 AE of any cause (expansion QD 5 mg) | Thrombocytopenia, treatment-related grade ≥3 AE (expansion QD 5 mg)
3 (18) n (%): Any AE resulting in treatment discontinuation (expansion QW 30 mg) | Any treatment-related SAE (expansion QW 30 mg) | Dry mouth, all-grade AE of any cause (expansion QW 30 mg) | Dysgeusia, treatment-related AE (expansion QW 30 mg) | Dyspepsia, treatment-related AE (expansion QW 30 mg) | Rash maculo-papular, all-grade AE of any cause (expansion QW 30 mg)
1 (3) n (%): Anaemia, grade ≥3 AE of any cause (expansion QD 5 mg) | Asthenia, grade ≥3 AE of any cause (expansion QD 5 mg) | Asthenia, treatment-related grade ≥3 AE (expansion QD 5 mg) | Depression, all-grade AE of any cause (expansion QD 5 mg) | Dyspepsia, treatment-related AE (expansion QD 5 mg) | Hypertension, grade ≥3 AE of any cause (expansion QD 5 mg) | Hypokalaemia, grade ≥3 AE of any cause (expansion QD 5 mg) | Hyponatremia, grade ≥3 AE of any cause (expansion QD 5 mg) | Lymphopenia, grade ≥3 AE of any cause (expansion QD 5 mg) | Musculoskeletal chest pain, grade ≥3 AE of any cause (expansion QD 5 mg) | Nausea, grade ≥3 AE of any cause (expansion QD 5 mg) | Nausea, treatment-related grade ≥3 AE (expansion QD 5 mg) | Pruritus generalised, treatment-related grade ≥3 AE (expansion QD 5 mg) | Rash, treatment-related AE (expansion QD 5 mg) | Sepsis, grade ≥3 AE of any cause (expansion QD 5 mg) | Vomiting, grade ≥3 AE of any cause (expansion QD 5 mg)
3 (8) n (%): Abdominal pain, grade ≥3 AE of any cause (expansion QD 5 mg) | Blood creatinine increased, treatment-related AE (expansion QD 5 mg) | Dry mouth, treatment-related AE (expansion QD 5 mg) | Hypophosphatemia, treatment-related AE (expansion QD 5 mg) | Hypophosphatemia, treatment-related grade ≥3 AE (expansion QD 5 mg) | Oropharyngeal pain, all-grade AE of any cause (expansion QD 5 mg) | Rash maculo-papular, grade ≥3 AE of any cause (expansion QD 5 mg) | Rash maculo-papular, treatment-related grade ≥3 AE (expansion QD 5 mg) | Stomatitis, grade ≥3 AE of any cause (expansion QD 5 mg) | Stomatitis, treatment-related grade ≥3 AE (expansion QD 5 mg)
17 (44) n (%): Decreased appetite, treatment-related AE (expansion QD 5 mg) | Diarrhoea, treatment-related AE (expansion QD 5 mg) | Hyperglycaemia, treatment-related AE (expansion QD 5 mg) | Rash maculo-papular, all-grade AE of any cause (expansion QD 5 mg)
10 (59) n (%): Vomiting, all-grade AE of any cause (expansion QW 30 mg) | Vomiting, treatment-related AE (expansion QW 30 mg)
4 (10) n (%): Fatigue, treatment-related grade ≥3 AE (expansion QD 5 mg) | Headache, all-grade AE of any cause (expansion QD 5 mg) | Hypophosphatemia, grade ≥3 AE of any cause (expansion QD 5 mg)
1 (6) n (%): Anaemia, grade ≥3 AE of any cause (expansion QW 30 mg) | Asthenia, treatment-related AE (expansion QW 30 mg) | Blood creatinine increased, treatment-related AE (expansion QW 30 mg) | Constipation, grade ≥3 AE of any cause (expansion QW 30 mg) | Dry mouth, treatment-related AE (expansion QW 30 mg) | Hypercholesterolemia, treatment-related AE (expansion QW 30 mg) | Hypokalaemia, grade ≥3 AE of any cause (expansion QW 30 mg) | Hyponatremia, grade ≥3 AE of any cause (expansion QW 30 mg) | Hypophosphatemia, treatment-related grade ≥3 AE (expansion QW 30 mg) | Nausea, treatment-related grade ≥3 AE (expansion QW 30 mg) | Oedema peripheral, all-grade AE of any cause (expansion QW 30 mg) | Oropharyngeal pain, all-grade AE of any cause (expansion QW 30 mg) | Pruritus, all-grade AE of any cause (expansion QW 30 mg) | Pruritus, treatment-related AE (expansion QW 30 mg) | Pyrexia, all-grade AE of any cause (expansion QW 30 mg) | Sepsis, grade ≥3 AE of any cause (expansion QW 30 mg) | Thrombocytopenia, grade ≥3 AE of any cause (expansion QW 30 mg) | Thrombocytopenia, treatment-related grade ≥3 AE (expansion QW 30 mg) | Transitional cell carcinoma, grade ≥3 AE of any cause (expansion QW 30 mg) | Urinary tract infection, all-grade AE of any cause (expansion QW 30 mg) | Vomiting, grade ≥3 AE of any cause (expansion QW 30 mg)
18 (46) n (%): Any treatment-related grade ≥3 AE (expansion QD 5 mg) | Hyperglycaemia, all-grade AE of any cause (expansion QD 5 mg)
20 (51) n (%): Decreased appetite, all-grade AE of any cause (expansion QD 5 mg) | Diarrhoea, all-grade AE of any cause (expansion QD 5 mg) | Nausea, treatment-related AE (expansion QD 5 mg)
19 (49) n (%): Any SAE (expansion QD 5 mg) | Stomatitis (includes oropharyngeal pain and mucosal inflammation), treatment-related AE (expansion QD 5 mg) | Stomatitis, all-grade AE of any cause (expansion QD 5 mg)
6 (35) n (%): Abdominal pain, all-grade AE of any cause (expansion QW 30 mg) | Any SAE (expansion QW 30 mg) | Any treatment-related grade ≥3 AE (expansion QW 30 mg) | Decreased appetite, treatment-related AE (expansion QW 30 mg)
0 n (%): On-study deaths (expansion QD 5 mg)
9 (23) n (%): Cough, all-grade AE of any cause (expansion QD 5 mg) | Dizziness, all-grade AE of any cause (expansion QD 5 mg) | Oedema peripheral, all-grade AE of any cause (expansion QD 5 mg)
21 (54) n (%): Nausea, all-grade AE of any cause (expansion QD 5 mg)
5 (29) n (%): Cough, all-grade AE of any cause (expansion QW 30 mg) | Diarrhoea, treatment-related AE (expansion QW 30 mg)
11 (65) n (%): Fatigue, all-grade AE of any cause (expansion QW 30 mg) | Fatigue, treatment-related AE (expansion QW 30 mg) | Nausea, treatment-related AE (expansion QW 30 mg)
4 (24) n (%): Blood creatinine increased, all-grade AE of any cause (expansion QW 30 mg) | Dehydration, all-grade AE of any cause (expansion QW 30 mg) | Depression, all-grade AE of any cause (expansion QW 30 mg) | Dysgeusia, all-grade AE of any cause (expansion QW 30 mg) | Pruritus generalised, all-grade AE of any cause (expansion QW 30 mg)
12 (71) n (%): Hyperglycaemia, all-grade AE of any cause (expansion QW 30 mg) | Hyperglycaemia, treatment-related AE (expansion QW 30 mg)
13 (33) n (%): Vomiting, all-grade AE of any cause (expansion QD 5 mg)
7 (18) n (%): Abdominal pain, all-grade AE of any cause (expansion QD 5 mg) | Any AE resulting in treatment discontinuation (expansion QD 5 mg) | Asthenia, treatment-related AE (expansion QD 5 mg) | Pruritus, treatment-related AE (expansion QD 5 mg)
11 (28) n (%): Pruritus generalised, treatment-related AE (expansion QD 5 mg)
9 (53) n (%): Any grade ≥3 AE (expansion QW 30 mg) | Stomatitis, all-grade AE of any cause (expansion QW 30 mg)
17 (100) n (%): Any AE (expansion QW 30 mg) | Any treatment-related AE (expansion QW 30 mg)
30 (77) n (%): Any grade ≥3 AE (expansion QD 5 mg)
13 (76) n (%): Nausea, all-grade AE of any cause (expansion QW 30 mg)
10 (26) n (%): Constipation, all-grade AE of any cause (expansion QD 5 mg) | Dysgeusia, all-grade AE of any cause (expansion QD 5 mg) | Dysgeusia, treatment-related AE (expansion QD 5 mg) | Pruritus, all-grade AE of any cause (expansion QD 5 mg)
5 (13) n (%): Any treatment-related SAE (expansion QD 5 mg) | Blood creatinine increased, all-grade AE of any cause (expansion QD 5 mg) | Dry mouth, all-grade AE of any cause (expansion QD 5 mg) | Fatigue, grade ≥3 AE of any cause (expansion QD 5 mg) | Hyperglycaemia, grade ≥3 AE of any cause (expansion QD 5 mg) | Hyperglycaemia, treatment-related grade ≥3 AE (expansion QD 5 mg) | Weight decreased, treatment-related AE (expansion QD 5 mg)
39 (100) n (%): Any AE (expansion QD 5 mg) | Any treatment-related AE (expansion QD 5 mg)
27 (69) n (%): Any AE resulting in dose modification/interruption (expansion QD 5 mg)
6 (15) n (%): Anaemia, all-grade AE of any cause (expansion QD 5 mg) | Dehydration, all-grade AE of any cause (expansion QD 5 mg) | Urinary tract infection, all-grade AE of any cause (expansion QD 5 mg) | Weight decreased, all-grade AE of any cause (expansion QD 5 mg)
7 (41) n (%): Decreased appetite, all-grade AE of any cause (expansion QW 30 mg)
12 (31) n (%): Pruritus generalised, all-grade AE of any cause (expansion QD 5 mg) | Vomiting, treatment-related AE (expansion QD 5 mg)
22 (56) n (%): Fatigue, treatment-related AE (expansion QD 5 mg)
0 (0) n (%): Constipation, grade ≥3 AE of any cause (expansion QD 5 mg) | Dehydration, grade ≥3 AE of any cause (expansion QD 5 mg) | Dehydration, treatment-related grade ≥3 AE (expansion QD 5 mg) | Headache, treatment-related AE (expansion QD 5 mg) | Hypercholesterolemia, treatment-related AE (expansion QD 5 mg) | Lymphopenia, treatment-related grade ≥3 AE (expansion QD 5 mg) | Pain in extremity, grade ≥3 AE of any cause (expansion QD 5 mg) | Rash, treatment-related grade ≥3 AE (expansion QD 5 mg) | Transitional cell carcinoma, grade ≥3 AE of any cause (expansion QD 5 mg) | Abdominal pain, grade ≥3 AE of any cause (expansion QW 30 mg) | Acute kidney injury, grade ≥3 AE of any cause (expansion QW 30 mg) | Acute kidney injury, treatment-related AE (expansion QW 30 mg) | Asthenia, grade ≥3 AE of any cause (expansion QW 30 mg) | Asthenia, treatment-related grade ≥3 AE (expansion QW 30 mg) | Dehydration, grade ≥3 AE of any cause (expansion QW 30 mg) | Dehydration, treatment-related grade ≥3 AE (expansion QW 30 mg) | Diarrhoea, grade ≥3 AE of any cause (expansion QW 30 mg) | Diarrhoea, treatment-related grade ≥3 AE (expansion QW 30 mg) | Dizziness, all-grade AE of any cause (expansion QW 30 mg) | Dyspnoea, grade ≥3 AE of any cause (expansion QW 30 mg) | Haematuria, grade ≥3 AE of any cause (expansion QW 30 mg) | Headache, treatment-related AE (expansion QW 30 mg) | Hyperkalaemia, grade ≥3 AE of any cause (expansion QW 30 mg) | Hypertension, grade ≥3 AE of any cause (expansion QW 30 mg) | Lymphopenia, grade ≥3 AE of any cause (expansion QW 30 mg) | Lymphopenia, treatment-related grade ≥3 AE (expansion QW 30 mg) | Musculoskeletal chest pain, grade ≥3 AE of any cause (expansion QW 30 mg) | Pneumonia, grade ≥3 AE of any cause (expansion QW 30 mg) | Pruritus generalised, treatment-related grade ≥3 AE (expansion QW 30 mg) | Rash maculo-papular, grade ≥3 AE of any cause (expansion QW 30 mg) | Rash maculo-papular, treatment-related grade ≥3 AE (expansion QW 30 mg) | Rash, treatment-related AE (expansion QW 30 mg) | Rash, treatment-related grade ≥3 AE (expansion QW 30 mg) | Stomatitis, grade ≥3 AE of any cause (expansion QW 30 mg) | Stomatitis, treatment-related grade ≥3 AE (expansion QW 30 mg) | Weight decreased, treatment-related AE (expansion QW 30 mg)
